In US9493468B2, “Antifungal 5,6-dihydro-4H-pyrrolo[1,2-a][1,4]benzo-diazepines and 6H-pyrrolo[1,2-a][1,4]benzodiazepines substituted with heterocyclic derivatives” (Janssen Pharmaceutica NV, priority 2011, dated 2016):

How the values were obtained:
Assay type in all cases: cell-based
Trichophyton rubrum = assay: Antifungal activity in vitro, resazurin growth inhibition: Trichophyton rubrum (B68183)
Outline: (§1)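 Broth microdilution: RPMI-1640/L-Gln/2% glucose, MOPS pH 7.0±0.1; 10^3 cfu/well; top concentration 64 μM, 2- or 4-fold steps. Dermatophytes at 27° C., one week or more. Resazurin 0.005% (w/v) added, fluorescence 550/590 nm.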

Rhizopus oryzae = assay: Antifungal activity in vitro, resazurin growth inhibition: Rhizopus oryzae (IHEM5223)
Outline: (§2)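 Compound dilutions, with 64 μM as the highest in-test level, are spotted onto plates, then an inoculum of 10^3 cfu in RPMI-1640 plus 2% glucose (MOPS, pH 7.0±0.1) is added. Plates are incubated at species-dependent time and temperature, up to a week or more at 27° C. for dermatophytes.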

Scedosporium prolificans = assay: Antifungal activity in vitro, resazurin growth inhibition: Scedosporium prolificans (IHEM21157)
Outline: as §2

Cryptococcus neoformans = assay: Antifungal activity in vitro, resazurin growth inhibition: Cryptococcus neoformans (B66663)
Outline: as §2

Candida parapsilosis = assay: Antifungal activity in vitro, resazurin growth inhibition: Candida parapsilosis (B66126)
Outline: as §2

Scedosporium apiospermum = assay: Antifungal activity in vitro, resazurin growth inhibition: Scedosporium apiospermum (IHEM3817)
Outline: as §2

Sporothrix schenkii = assay: Antifungal activity in vitro, resazurin growth inhibition: Sporothrix schenkii (B62482)
Outline: as §2

Microsporum canis = assay: Antifungal activity in vitro, resazurin growth inhibition: Microsporum canis (B68128)
Outline: as §1

[1] = test system: Trichophyton mentagrophytes; assay: Antifungal activity in vitro, resazurin growth inhibition: Trichophyton mentagrophytes (B70554)
Outline: as §1

Aspergillus fumigatus = assay: Antifungal activity in vitro, resazurin growth inhibition: Aspergillus fumigatus (B42928)
Outline: as §2

Rhizomucor miehei = assay: Antifungal activity in vitro, resazurin growth inhibition: Rhizomucor miehei (IHEM13391)
Outline: as §2

Row | Compound | Inf. C: Trichophyton rubrum B68183, pIC50 (Trichophyton rubrum) | Inf. J: Rhizopus oryzae IHEM5223, pIC50 (Rhizopus oryzae) | Inf. I: Scedosporium prolificans IHEM21157, pIC50 (Scedosporium prolificans) | Inf. F: Cryptococcus neoformans B66663, pIC50 (Cryptococcus neoformans) | Inf. D: Candida parapsilosis B66126, pIC50 (Candida parapsilosis) | Inf. H: Scedosporium apiospermum IHEM3817, pIC50 (Scedosporium apiospermum) | Inf. A: Sporothrix schenkii B62482, pIC50 (Sporothrix schenkii) | Inf. B: Microsporum canis B68128, pIC50 (Microsporum canis) | Inf. G: Trichophyton mentagrophytes B70554, pIC50 [1] | Inf. E: Aspergillus fumigatus B42928, pIC50 (Aspergillus fumigatus) | Inf. K: Rhizomucor miehei IHEM13391, pIC50 (Rhizomucor miehei)
1 | CCc1ccc(C2=NCc3c(Cl)cc(Cl)cc3-n3cccc32)cn1 [Compound 76] | 5.75 | <4.19 | 5.46 | 4.82 | <4.19 | 5.07 | 4.46 | 6.34 | 5.00 | 4.72 | 4.49
2 | Clc1ccc2c(c1)-n1cccc1C(c1cc3ccccc3s1)=NC2 [Compound 166] | 5.70 | 5.37 | 5.65 | 6.00 | <4.19 | 4.33 | 5.52 | 5.70 | 5.52 | 6.00 | <4.19
3 | FC(F)(F)c1ncc(C2=NCc3c(Cl)cccc3-n3cccc32)cn1 [Compound 102] | 6.84 | <4.19 | 5.18 | <4.19 | <4.19 | <4.19 | 4.59 | 6.34 | 6.01 | 5.05 | <4.19
4 | Fc1ccc2oc(C3=NCc4c(Cl)cccc4-n4cccc43)cc2c1 [Compound 123] | 6.96 | <4.19 | 6.44 | 4.98 | <4.19 | 6.02 | 5.04 | 6.75 | 6.23 | 6.25 | 5.14
5 | Clc1cc(Cl)c2c(c1)-n1cccc1C(c1cc3ccccc3o1)=NC2 [Compound 120] | 6.31 | <4.19 | 5.52 | 5.52 | <4.19 | 4.19 | 4.86 | 6.16 | 5.81 | 5.99 | <4.19
6 | c1ccc2c(c1)CN=C(c1cc3ccccc3s1)c1cccn1-2 [Compound 163] | 6.71 | 4.98 | 6.27 | 6.51 | 5.12 | 5.63 | 5.59 | 6.14 | 5.99 | 5.61 | 5.06
7 | Clc1cccc2c1CN=C(c1ccc3occ(Cl)c3c1)c1cccn1-2 [Compound 152] | 6.85 | <4.19 | 5.15 | 5.82 | 5.59 | 4.28 | 5.11 | 6.34 | 6.46 | 6.26 | <4.19
8 | FC(F)(F)c1ccc(C2=NCc3c(Cl)cccc3-n3cccc32)cn1 [Compound 89] | 6.75 | <4.19 | 6.28 | <4.19 | 6.17 | <4.19 | <4.19 | 6.14 | 6.23 | 5.70 | <4.19
9 | c1ccc2c(c1)CN=C(c1cc3ccccc3o1)c1cccn1-2 [Compound 115] | 7.47 | <4.19 | 5.98 | 5.70 | 4.25 | <4.19 | 5.70 | 7.02 | 7.28 | 6.82 | 4.88
10 | Cn1ccc2ccc(C3=NCc4c(Cl)cccc4-n4cccc43)cc21 [Compound 196] | 6.77 | <4.19 | 5.72 | 5.84 | 5.25 | 4.35 | 5.00 | 6.36 | 6.17 | 5.65 | <4.19
11 | Cn1nnc2ccc(C3=NCc4c(Cl)cccc4-n4cccc43)cc21 [Compound 110] | 5.96 | <4.49 | 5.89 | 5.09 | 4.58 | 4.77 | 4.44 | 5.30 | 5.60 | 5.50 | <4.49
12 | Cc1cccc2c1CN=C(c1cc3ccccc3o1)c1cccn1-2 [Compound 116] | 7.52 | <4.19 | 6.46 | 5.65 | 4.70 | 6.22 | 5.84 | 7.39 | 6.83 | 6.26 | 4.81
13 | CC(F)(F)c1ccc(C2=NCc3c(F)cccc3-n3cccc32)cn1 [Compound 83] | 6.68 | <4.19 | 6.09 | <4.19 | <4.19 | <4.19 | <4.19 | 4.97 | 5.88 | 5.33 | <4.19
